Measured values published in patent US10881644B2, “Treatment of asthma and chronic obstructive pulmonary disease with anti-proliferate and anti-inflammatory drugs” (Lutonix, Inc., priority 2006, dated 2021).
Each block holds one compound with its values, some of them ahead of it.

How the values were obtained:
[1] = Stability under ethylene oxide sterilization, heating and aging with paclitaxel; assay type: physicochemical; conditions: formulated with paclitaxel
[2] = Drug coated PTCA balloon catheter in pig blood vessels: residual drug on balloon and drug content in tissue by tissue extraction and HPLC; conditions: after only 0.2-2 minutes of deployment; substance used as additive in the drug coating
From the text: 6 PTCA balloon catheters (3.5 and 3.0 mm in diameter and 20 mm in length) were inflated at 1-3 atm. […] The sufficient amount of drug on the balloon (3 microgram per square mm) was obtained. The inflated balloon was folded, and then dried. The coated folded balloon was then rewrapped and sterilized for animal testing.
The coated PTCA balloon catheter was inserted into target site in the blood vessels (LAD, LCX and RCA) in the 25-45 ib pig was inflated to 12 atm. […] The drug was delivered into the target tissue in 30-60 seconds. The balloon catheter was then deflated and was withdrawn from the animal body. The target blood vessel was harvested at 0.25-24 hours after inflation. The drug content in the target tissue and the residual drug remained on the balloon were analyzed by tissue extraction and HPLC. In some of the animal tests the stent was crimped on the drug coated balloon catheters prior to deployment.
All data is the average of five or six experimental data points.

[3] = with the addition of BSA; cited from earlier work
[4] = tested on: albumin; conditions: cited from earlier work
[5] = 1 minute after intravenous injection in rats; cited from earlier work

stability under ethylene oxide sterilization, heating, and aging process [1]: not stable
Compound: O=C1O[C@H]([C@@H](O)CO)C(O)=C1O [ascorbic acid]

Compound: O=C(O)c1ccccc1 [benzoic acid]
stability under ethylene oxide sterilization, heating, and aging process [1]: not stable

stability under ethylene oxide sterilization, heating, and aging process [1]: not stable
Compound: OCCNCCO [diethanolamine]

stability under ethylene oxide sterilization, heating, and aging process [1]: not stable
Compound: O=C(O)c1cc(O)ccc1O [gentisic acid]

drug absorption by tissue / drug levels in tissue [2]: unexpectedly high
Compound: O=C1O[C@H](CO)[C@@H](O)[C@H](O)[C@H]1O [gluconolactone]

Compound: CC(=O)O[C@H]1C(=O)[C@@]2(C)[C@H]([C@H](OC(=O)c3ccccc3)[C@]3(O)C[C@H](OC(=O)[C@H](O)[C@@H](NC(=O)c4ccccc4)c4ccccc4)C(C)=C1C3(C)C)[C@]1(OC(C)=O)CO[C@@H]1C[C@@H]2O [paclitaxel]
increase of solubility in PBS [3]: over 20 fold

Compound: CO[C@H]1C[C@@H]2CC[C@@H](C)[C@@](O)(O2)C(=O)C(=O)N2CCCC[C@H]2C(=O)O[C@H]([C@H](C)C[C@@H]2CC[C@@H](O)[C@H](OC)C2)CC(=O)[C@H](C)/C=C(\C)[C@@H](O)[C@@H](OC)C(=O)[C@H](C)C[C@H](C)/C=C/C=C/C=C/1C [rapamycin]
protein bound [4]: 92%

Compound: O=C1O[C@H](CO)[C@@H](O)[C@H]1O [ribonic acid lactone]
drug absorption by tissue / drug levels in tissue [2]: unexpectedly high

Compound: I-iothalamate
share of myocardial content found in the extravascular space [5]: approximately 80%
